Test results published in patent US6319952A, “Compositions and methods for reversibly increasing permeability of biomembranes” (D-Pharm Ltd., priority 1997, dated 2001).

Assays:
membrane = settings: Perlman and Goldstein; cited from earlier work
mice = assay: Acute intravenous toxicity test in mice; assay type: in vivo; settings: i.v.; for dose causing mortality: mice, three days
Description: An acute intravenous toxicity test was performed to study the toxicity of the branched fatty acids in mice. The study included mortality and behavioral observations during three days. The rate of mortality is represented in the Table 5. M 3/14 caused mortality at a dose of 175 mg/kg; M3/12 at a dose of 75 mg/kg and M 3/10 at a dose of 100 mg/kg. Death was observed ten minutes after i.v. injection. In sub-lethal doses no significant behavior changes were observed.

[1] = system: blood-brain barrier (BBB); assay: Effect of branched chain fatty acids on BBB permeability by qualitative Evan's Blue (EB) evaluation in rats; assay type: in vivo, rat (male Sprague-Dawley); settings: intracarotid infusion
Description: Evaluation of Effect of Branched Fatty Acids on Blood-brain Barrier Permeability
The experiments were carried out on male Sprague-Dawley rats weighing 250-320 gr. They were anesthetized with Rampun-Imalgen. The right common carotid artery was exposed.
The test compounds were dissolved in 0.1M phosphate buffered physiological saline (pH=7.4) at the following test concentrations: 1.6; 8; 20; 40; 200 and 1000 μg/ml.
The test compound was infused into the right common carotid artery at a rate of 6 ml/min. for 30 s. The control rats were infused with buffer. Evan's Blue (EB) solution at a concentration of […] (2 g Evan's Blue, 0.9 g NaCl in 100 ml water) was injected intravenously 50 minutes prior to the termination of the experiment.
In the case of 45 min experiment, five minutes prior to the infusion of the tested material, 4 ml/kg body wt dose of Evans Blue solution was injected intravenously.
At the end of the experimental time period the animals were perfused with 100 ml of saline solution through the heart and decapitated. The degree of BBB opening, in terms of extravasation of Evan's Blue albumin, was graded on the basis of visual assessment of the degree of staining of the brain ato the method of Rapoport et al. (Rapoport et al., 1980, Amer. J. Physiol. 258, 421-431), and the results are presented in Tables 1 and 2.
The results presented are qualitative with four degrees of Evan's Blue extravasation according to Rapoport et al. Minus signs represents no staining and three plus signs represent maximal staining.

blood brain barrier [2] = settings: cited from earlier work
blood brain barrier [3] = settings: Sztriha and Betz; cited from earlier work

Structure (SMILES): CCCC(CCC)C(=O)O [valproic acid]
- membrane disordering (membrane): membrane disordering potency

Structure (SMILES): CCCCCCCCCCC(CCC)C(=O)O (stereo not drawn) [M 3/10, 2-propyldodecanoic acid]
- Mortality (mice; 50 mg/kg, 10 mg/ml): 0/3
- Mortality (mice; 100 mg/kg, 10 mg/ml): 3/3
- dose causing mortality (mice): 100 mg/kg
- Visual EB ([1]; 625 μM, 45 min): ++

Structure (SMILES): OC[C@@H](O)[C@@H](O)[C@H](O)[C@H](O)CO [Mannitol]
- drug entry after barrier opening (blood brain barrier [2]; osmotic modification, chemotherapy after barrier opening): enhanced drug entry to both brain-tumor and brain
- complications of osmotic BBB modification (blood brain barrier [2]; osmotic modification): clinical manifestation of stroke, seizures, immunological reaction and ocular toxicity
- duration of BBB opening (blood brain barrier [2]; osmotic treatment, Greig): very short period

Structure (SMILES): CCCCCCCCCCCCC(CCC)C(=O)O (stereo not drawn) [M 3/12, 2-propyltetradecanoic acid]
- Mortality (mice; 50 mg/kg, 2.5 mg/ml): 0/3
- Mortality (mice; 75 mg/kg, 2.5 mg/ml): 3/3
- dose causing mortality (mice): 75 mg/kg
- Visual EB ([1]; 125 μM, 180 min): ++

Structure (SMILES): CCCCCCCC/C=C\CCCCCCCC(=O)O [oleic acid, reference compound]
- opening of the BBB (blood brain barrier [3]): reversibly open the BBB
- Visual EB ([1]; 125 μM, 180 min): -

Structure (SMILES): CCCCCCCCCCC(CCCCCCCCCC)C(=O)O [M 10/10, 2-decanyldodecanoic acid]
- Visual EB ([1]; 625 μM, 45 min): ++
